Several values for one entry are separate records, joined by “and”; a condition that tells them apart may be missing. Equal entries are not always repeated.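 Each compound was tested at five concentrations against cells in 96-well plates for 48 hours. GI50 marks 50% less growth. TGI: total growth inhibition.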
Experiments:
Experiment in all cases: inhibition of tumour cell growth, NCI panel, 48 h
HCT-116 colon = test system: HCT-116 colon
MDA-MB-435 = test system: MDA-MB-435
M14 melanoma = test system: M14 melanoma
SNB-75 CNS = test system: SNB-75 CNS
K-562 leukemia = test system: K-562 leukemia
RXF 393 renal = test system: RXF 393 renal
SR leukemia = test system: SR leukemia
UACC-257 melanoma = test system: UACC-257 melanoma
MOLT-4 leukemia = test system: MOLT-4 leukemia
SK-MEL-28 melanoma = test system: SK-MEL-28 melanoma

SMILES	GI50 (HCT-116 colon) [µM]	TGI (HCT-116 colon) [µM]	GI50 (MDA-MB-435) [µM]	TGI (MDA-MB-435) [µM]	GI50 (M14 melanoma) [µM]	TGI (M14 melanoma) [µM]	GI50 (SNB-75 CNS) [µM]	TGI (SNB-75 CNS) [µM]	GI50 (K-562 leukemia) [µM]	TGI (K-562 leukemia) [µM]	GI50 (RXF 393 renal) [µM]	TGI (RXF 393 renal) [µM]	GI50 (SR leukemia) [µM]	TGI (SR leukemia)	GI50 (UACC-257 melanoma) [µM]	TGI (UACC-257 melanoma)	GI50 (MOLT-4 leukemia) [µM]	TGI (MOLT-4 leukemia)	GI50 (SK-MEL-28 melanoma) [µM]	TGI (SK-MEL-28 melanoma) [µM]
CC1(C)N=C(N)N=C(N)N1c1cccc(CCCCc2ccc(Cl)c(S(=O)(=O)F)c2)c1	0.457	13.5	0.445	15.7	3.21	17.4	10.3	22.4	0.521	15.2	0.459	16.1	2.44	16.8 µM	1.14	18.7 µM	1.82	19.2 µM	7.67	21.2
CN1C(c2ccccc2)CC(=NO)CC1c1ccccc1 (stereo unspecified)	33.9	33.6	61			> 100		> 100	32.6	> 100	87.9	> 100	24.9	> 100 µM and 80.1 µM	26.8	> 100 µM and 79.9 µM	23	62.2 µM and 69.3 µM		> 100
CCCCNC(=O)Oc1ccc(/C(=C(\C)c2ccc(OC)cc2)c2ccc(OCCN3CCCCC3)cc2)cc1	1.15	2.38	1.78	3.67	1.7	3.23	6.91	25	1.49	4.65	2.09	4.3	1.59	4.63 µM	2.72	6.71 µM	3.12	71.9 µM	1.75	3.4
Oc1cccc2ccc(SSc3ccc4cccc(O)c4n3)nc12		41.1		37.5		33.3		34.9		> 100		30.8		> 100 µM		43.2 µM		> 100 µM		41.3
Cc1ccc(NC(=O)CCc2nnc3s/c(=C\C=C\c4ccccc4)c(=O)n23)cc1		> 100		> 100		> 100		> 100		> 100		> 100		65.6 µM		> 100 µM		79.8 µM		> 100
COc1nc2c(c(=O)n1C)CN(c1ccccc1)C(=O)CN2C	60.5	> 100	> 100	> 100	62.6	> 100	48.9	> 100	59.7	> 100	54.3	> 100	17	> 100 µM	> 100	> 100 µM	33.9	> 100 µM	70	> 100
COc1ccc2c(c1)/C(=C\c1c(-c3ccccc3)nc3sccn13)C(=O)N2	1.43	8.19	0.04	0.287	7.11	18.4	7.16	23.5	3.98	> 41.9	2.69	21.4	24	> 100 µM	28.7	89.3 µM	12.5	> 44.5 µM	2.61	21.9
O=c1cccccc1O		> 100		> 100		> 100		> 100		> 100		> 100		> 100 µM		> 100 µM		> 100 µM		> 100
CC[C@H](C)[C@H](NC(=O)c1ncccn1)C(=O)N(C)[C@H](C[C@@H](OC(C)=O)c1nc(C(=O)N[C@@H](Cc2ccccc2)C[C@H](C)C(=O)OC)cs1)C(C)C	0.929	> 25	0.393	1.08	1.13	> 25	0.768	> 25	0.935	> 25	0.809	20.6	0.213	> 25 µM	2.38	> 25 µM	2.39	> 25 µM	3.51	> 25
Cn1cc(-c2ncnc3ccc(-c4cnc(Cl)c(NS(C)(=O)=O)c4)cc23)c2ccccc21	2.37	98.1	0.514	10.8	0.976	> 100	0.127	1.98	2.7	> 100	0.435	4.05	1.24	> 35.9 µM	0.959	7.05 µM	0.491	4.89 µM	0.306	6.89
O=C(N/N=C/c1ccc([N+](=O)[O-])cc1)c1ccccc1Nc1ccnc(C(F)(F)F)c1	20	70.2	14.7	35.1	19.2	58.7	18.2	70.3	11	> 100	15.4	42.8	1.5	20.2 µM	11.6	37.9 µM	5.33	40.5 µM	14.8	64.2
